ChEMBL document CHEMBL2150942, “Synthesis and antibacterial activity of novel 1,3-diphenyl-1H-pyrazoles functionalized with phenylalanine-derived rhodanines” (Eur J Med Chem, 2012)
Values after ≈ are worked out from the molar mass of the structure shown.

Experiments:
Format in all cases: functional
[1] = test system: Staphylococcus aureus; assay: Antibacterial activity against Staphylococcus aureus KCTC 503 after 20 hrs by two fold serial dilution assay; conditions: KCTC 503, 20 h
[2] = test system: Staphylococcus aureus; assay: Antibacterial activity against Staphylococcus aureus RN4220 after 20 hrs by two fold serial dilution assay; conditions: RN4220, 20 h
[3] = test system: Escherichia coli; assay: Antibacterial activity against Escherichia coli CCARM 1924 after 20 hrs by two fold serial dilution assay; conditions: CCARM 1924, 20 h
[4] = test system: Escherichia coli; assay: Antibacterial activity against Escherichia coli CCARM 1356 after 20 hrs by two fold serial dilution assay; conditions: CCARM 1356, 20 h
[5] = test system: Staphylococcus aureus; assay: Antibacterial activity against methicillin-resistant Staphylococcus aureus CCARM 3167 after 20 hrs by two fold serial dilution assay; conditions: CCARM 3167, 20 h
[6] = test system: Staphylococcus aureus; assay: Antibacterial activity against methicillin-resistant Staphylococcus aureus CCARM 3506 after 20 hrs by two fold serial dilution assay; conditions: CCARM 3506, 20 h
[7] = test system: Staphylococcus aureus; assay: Antibacterial activity against quinolone-resistant Staphylococcus aureus CCARM 3505 after 20 hrs by two fold serial dilution assay; conditions: CCARM 3505, 20 h
[8] = test system: Staphylococcus aureus; assay: Antibacterial activity against quinolone-resistant Staphylococcus aureus CCARM 3519 after 20 hrs by two fold serial dilution assay; conditions: CCARM 3519, 20 h
[9] = test system: Staphylococcus aureus; assay: Ratio of norfloxacin MIC to compound MIC for methicillin-resistant Staphylococcus aureus CCARM 3167
[10] = test system: Staphylococcus aureus; assay: Ratio of norfloxacin MIC to compound MIC for methicillin-resistant Staphylococcus aureus CCARM 3506

**Q.** With CCn1cc(C(=O)O)c(=O)c2cc(F)c(N3CCNCC3)cc21 [NORFLOXACIN] as the compound, how does the MIC [1] read?
**A.** Its MIC is 2 µg/mL (≈ 6.26 µM).

**Q.** And the MIC [2]?
**A.** The MIC was 2 µg/mL (≈ 6.26 µM).

**Q.** What about the MIC [3] of the same compound?
**A.** The MIC was 16 µg/mL (≈ 50.1 µM).

**Q.** What about the MIC [4] of the same compound?
**A.** Its MIC is 16 µg/mL (≈ 50.1 µM).

**Q.** And the MIC [5]?
**A.** Its MIC is 8 µg/mL (≈ 25.1 µM).

**Q.** And the MIC [6]?
**A.** Its MIC is 4 µg/mL (≈ 12.5 µM).

**Q.** And the MIC [7]?
**A.** The MIC was greater than 64 µg/mL.

**Q.** What about the MIC [8] of the same compound?
**A.** The MIC was greater than 64 µg/mL.

**Q.** What does the source list for O=C(O)[C@@H](Cc1ccccc1)N1C(=O)/C(=C/c2cn(-c3ccccc3)nc2-c2ccccc2)SC1=S?
**A.** MIC [1]: 8 µg/mL (≈ 15.6 µM); MIC [2]: 2 µg/mL (≈ 3.91 µM); MIC [3]: > 64 µg/mL; MIC [4]: > 64 µg/mL; MIC [5]: 4 µg/mL (≈ 7.82 µM); MIC [6]: 4 µg/mL (≈ 7.82 µM); MIC [7]: 4 µg/mL (≈ 7.82 µM); MIC [8]: 4 µg/mL (≈ 7.82 µM)

**Q.** Which MIC [1] does the source give for O=C(O)[C@@H](Cc1ccccc1)N1C(=O)/C(=C/c2cn(-c3ccccc3)nc2-c2ccc(F)cc2)SC1=S here?
**A.** Its MIC is 16 µg/mL (≈ 30.2 µM).

**Q.** And the MIC [2]?
**A.** The MIC was 4 µg/mL (≈ 7.55 µM).

**Q.** What about the MIC [3] of the same compound?
**A.** Its MIC is greater than 64 µg/mL.

**Q.** And the MIC [4]?
**A.** The MIC was greater than 64 µg/mL.

**Q.** And the MIC [5]?
**A.** Its MIC is 1 µg/mL (≈ 1.89 µM).

**Q.** What about the MIC [6] of the same compound?
**A.** Its MIC is 1 µg/mL (≈ 1.89 µM).

**Q.** And the MIC [7]?
**A.** The MIC was 1 µg/mL (≈ 1.89 µM).

**Q.** And the MIC [8]?
**A.** The MIC was 1 µg/mL (≈ 1.89 µM).

**Q.** And the Ratio [9]?
**A.** The Ratio was 8.

**Q.** And the Ratio [10]?
**A.** The Ratio was 4.

**Q.** For O=C(O)[C@@H](Cc1ccccc1)N1C(=O)/C(=C/c2cn(-c3ccccc3)nc2-c2ccc(Br)cc2)SC1=S, which MIC [1] is on record?
**A.** The MIC was 16 µg/mL (≈ 27.1 µM).

**Q.** And the MIC [2]?
**A.** Its MIC is 4 µg/mL (≈ 6.77 µM).

**Q.** And the MIC [3]?
**A.** The MIC was greater than 64 µg/mL.

**Q.** What about the MIC [4] of the same compound?
**A.** The MIC was greater than 64 µg/mL.

**Q.** And the MIC [5]?
**A.** Its MIC is 1 µg/mL (≈ 1.69 µM).

**Q.** What about the MIC [6] of the same compound?
**A.** The MIC was 1 µg/mL (≈ 1.69 µM).

**Q.** And the MIC [7]?
**A.** Its MIC is 1 µg/mL (≈ 1.69 µM).

**Q.** And the MIC [8]?
**A.** The MIC was 16 µg/mL (≈ 27.1 µM).

**Q.** And the Ratio [9]?
**A.** The Ratio was 8.

**Q.** What about the Ratio [10] of the same compound?
**A.** The Ratio was 4.

**Q.** Which results are given for COc1cccc(-c2nn(-c3ccccc3)cc2/C=C2\SC(=S)N([C@H](Cc3ccccc3)C(=O)O)C2=O)c1?
**A.** MIC [1]: 16 µg/mL (≈ 29.5 µM); MIC [2]: 4 µg/mL (≈ 7.38 µM); MIC [3]: > 64 µg/mL; MIC [4]: > 64 µg/mL; MIC [5]: 16 µg/mL (≈ 29.5 µM); MIC [6]: 16 µg/mL (≈ 29.5 µM); MIC [7]: 16 µg/mL (≈ 29.5 µM); MIC [8]: 16 µg/mL (≈ 29.5 µM)

**Q.** O=C(O)[C@@H](Cc1ccccc1)N1C(=O)/C(=C/c2cn(-c3ccccc3)nc2-c2ccc3ccccc3c2)SC1=S was tested. Which MIC [1] did it give?
**A.** Its MIC is 16 µg/mL (≈ 28.5 µM).

**Q.** And the MIC [2]?
**A.** Its MIC is 2 µg/mL (≈ 3.56 µM).

**Q.** What about the MIC [3] of the same compound?
**A.** Its MIC is greater than 64 µg/mL.

**Q.** And the MIC [4]?
**A.** The MIC was greater than 64 µg/mL.

**Q.** And the MIC [5]?
**A.** The MIC was 16 µg/mL (≈ 28.5 µM).

**Q.** And the MIC [6]?
**A.** Its MIC is 16 µg/mL (≈ 28.5 µM).

**Q.** And the MIC [7]?
**A.** The MIC was 16 µg/mL (≈ 28.5 µM).

**Q.** What about the MIC [8] of the same compound?
**A.** Its MIC is 16 µg/mL (≈ 28.5 µM).

**Q.** Which MIC [1] does the source give for O=C(O)[C@@H](Cc1ccccc1)N1C(=O)/C(=C/c2cn(-c3ccccc3)nc2-c2ccc(Cl)cc2Cl)SC1=S here?
**A.** The MIC was 2 µg/mL (≈ 3.45 µM).

**Q.** What about the MIC [2] of the same compound?
**A.** The MIC was 2 µg/mL (≈ 3.45 µM).

**Q.** And the MIC [3]?
**A.** Its MIC is greater than 64 µg/mL.

**Q.** What about the MIC [4] of the same compound?
**A.** The MIC was greater than 64 µg/mL.

**Q.** What about the MIC [5] of the same compound?
**A.** Its MIC is 1 µg/mL (≈ 1.72 µM).

**Q.** What about the MIC [6] of the same compound?
**A.** Its MIC is 1 µg/mL (≈ 1.72 µM).

**Q.** What about the MIC [7] of the same compound?
**A.** The MIC was 2 µg/mL (≈ 3.45 µM).

**Q.** And the MIC [8]?
**A.** The MIC was 1 µg/mL (≈ 1.72 µM).

**Q.** And the Ratio [9]?
**A.** Its Ratio is 8.

**Q.** And the Ratio [10]?
**A.** The Ratio was 4.

**Q.** How did the MIC [1] turn out when O=C(O)[C@@H](Cc1ccccc1)N1C(=O)/C(=C/c2cn(-c3ccccc3)nc2-c2ccccc2F)SC1=S was run?
**A.** Its MIC is 16 µg/mL (≈ 30.2 µM).

**Q.** And the MIC [2]?
**A.** The MIC was 4 µg/mL (≈ 7.55 µM).

**Q.** And the MIC [3]?
**A.** Its MIC is greater than 64 µg/mL.

**Q.** What about the MIC [4] of the same compound?
**A.** Its MIC is greater than 64 µg/mL.

**Q.** What about the MIC [5] of the same compound?
**A.** Its MIC is 4 µg/mL (≈ 7.55 µM).

**Q.** And the MIC [6]?
**A.** The MIC was 4 µg/mL (≈ 7.55 µM).

**Q.** What about the MIC [7] of the same compound?
**A.** The MIC was 2 µg/mL (≈ 3.78 µM).

**Q.** What about the MIC [8] of the same compound?
**A.** Its MIC is 4 µg/mL (≈ 7.55 µM).
